Test results: US20260374739A1, “SMALL MOLECULAR WEIGHT CHEMICAL COMPOUND TO ANTAGONIZE EPH-EPHRIN TETRAMERIZATION AND INHIBIT BIDIRECTIONAL SIGNALING” (THE BOARD OF REGENTS OF THE UNIVERSITY OF TEXAS SYSTEM, priority 2022, published 2026)
pIC50: −log10 of the molar value. Where “and” joins values, the source holds several entries; their conditions need not be identical. Identical values can stand only once. Like-named read-outs stand apart in the source and are kept apart here. Each block holds one molecule with its values, some of them ahead of it.

Tests used:
aqueous solubility = assay type: physicochemical; conditions: for solubility in water: salt forms
Description: FIG. 45 depicts tests of salt forms of A20 and A20-1 for aqueous solubility. Compounds were provided to the UT Southwestern PK Core facility and tested for soluble in water. While both are quite soluble, A20 salt was especially so and can be made into a […] solution, whereas A20-I salt can be dissolved into >15% solution.
A study was conducted with A20 salt dissolved solely in PBS and injected at 20 mg/kg to match the previously described study of the free-base. […] The results from the brain, spinal cord, and liver tissues are particularly outstanding and indicate that significant levels of A20 salt remain even after the final collection at 24 hr time point.
To examine the drug-like nature of the disclosed compounds, tests for solubility was conducted.

EphrinB2-EphB1 = biological target: T1, EphrinB2-EphB1 (Homo sapiens, UniProt P54762); assay: Octet, immobilized human EphrinB2 binding to 50 nM soluble human EphB1
T1 construct: soluble human EphB1-His, EphB2-His, and EphB4-His ectodomains; commercially available human EphrinB1-Fc (EB1), EphrinB2-Fc (EB2), and EphrinB3-Fc (EB3) ectodomain proteins; purchased
T1 sequence (P54762 18-540 limits assumed): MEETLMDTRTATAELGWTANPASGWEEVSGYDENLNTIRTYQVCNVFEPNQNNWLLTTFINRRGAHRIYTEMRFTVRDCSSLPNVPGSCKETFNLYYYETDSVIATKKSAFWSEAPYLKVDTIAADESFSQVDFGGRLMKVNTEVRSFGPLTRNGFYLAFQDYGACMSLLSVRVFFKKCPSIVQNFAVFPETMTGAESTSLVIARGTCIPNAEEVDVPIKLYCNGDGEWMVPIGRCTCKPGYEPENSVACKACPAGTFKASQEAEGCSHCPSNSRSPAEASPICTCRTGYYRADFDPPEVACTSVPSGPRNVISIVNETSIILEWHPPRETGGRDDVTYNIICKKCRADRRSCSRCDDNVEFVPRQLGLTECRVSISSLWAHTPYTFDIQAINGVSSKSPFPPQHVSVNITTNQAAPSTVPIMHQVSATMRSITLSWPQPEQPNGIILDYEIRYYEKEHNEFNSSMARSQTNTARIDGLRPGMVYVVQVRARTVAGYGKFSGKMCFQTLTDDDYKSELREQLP
Description: Studies were conducted to confirm that A20 chemicals can effectively target the human Eph/Ephrin proteins. Octet system was used to first characterize the biophysical interactions of the human B class Eph and Ephrin proteins, and then was tested to assess how A20 may disrupt the interactions. Since the human and rodent proteins are highly conserved, and essentially identical, with EphB2 sharing 99.5% identity between human and mouse, with only 5 of ~1,000 amino acids different, any species-specific differences were not anticipated. Therefore, commercially available human EphrinB1-Fc (EB1), EphrinB2-Fc (EB2), and EphrinB3-Fc (EB3) ectodomain proteins were sparsely immobilized onto biosensors and then exposed to 50 nM of soluble human EphB1-His, EphB2-His, and EphB4-His ectodomains for 800 sec association and 1,000 sec dissociation steps with a total of nine different interactions analyzed. In the absence of A20 chemical, the immobilized human EphrinB proteins bound to their appropriate human EphB target proteins; with EphrinB1 only bound EphB1 and EphB2, EphrinB2 bound all three EphB1, EphB2, and EphB4, and EphrinB3 only bound EphB1 and EphB2 (FIG. 19A-19B).
The Octet studies shown in FIG. 19A-19F, and FIG. 20A-20C, and Table 2 using human proteins involved runs in which 1, 10, and 100 μM concentrations of the A20.2×HCl salt were included to determine how compound would affect binding kinetics. The sensorgrams for immobilized human EphrinB2 binding to EphB2 and EphB4 with 0, 1, 10, and 100 μM concentrations of A20 salt provide good examples of how the compound can alter Eph-Ephrin protein-protein interaction dynamics. […] This indicates the effective/relative IC50 for A20 is well below 1 μM (more accurate IC50 calculations are provided below). Notwithstanding, if just the sensorgram responses for 0 and 1 μM A20 are analyzed for absolute IC50 calculations (FIG. 21B), it is clear the compound is a much stronger inhibitor of the EB2-EphB2 interaction whether assessed near the end of association step (blue star), shortly after start of dissociation step (gold star), or by AUC, as all provide absolute IC50 values −1 μM. […] For EphB2-EB2, the slope went from 20° to 10° in the presence of A20 and for EphB4-EB2 from 5° to 3°. The reduced slope later in the association step indicates the A20 compound is specifically affecting accumulation of the stable tetramer.
Addition of compound also altered dissociation kinetics. […] This is referred to as the “unsurmountable” component of the Eph-Ephrin interaction (FIG. 21C). Additionally, AUC data was graphed for these runs (FIG. 21D). […] For EB2-EphB4, the dimer:tetramer ratio was 83:8 in the presence of A20 and was not much different from the no compound control run because it is already a strong dimer-driven interaction. […] A similar though more muted effect of A20 on tetramer accumulation was also observed for the other interactions of immobilized human EphrinB binding to soluble human EphB1 and EphB2 ectodomains (FIG. 22). The inhibitory effect of A20 is strongest on the EB2-EphB2 interaction with absolute IC50 reaching 1 μM, followed by the EB2-EphB1 interaction with absolute IC50-10 μM. […] The “unsurmountable” component of the EB2-EphB1 interaction was-50% of the tetramer species (14:41) whereas that for EB2-EphB2 interaction is-30%.
Further to the experiments listed above, a series of dose-response experiments were conducted to determine the IC50 of a selected A20 chemical (A20-1) on the kinetics of human EphrinB2 ligand ectodomain protein binding to its cognate human EphB1, EphB2, and EphB4 receptor ectodomain proteins. FIG. 74A-74C are representative sensorgrams showing the effect of 0, 0.1, 0.2, 0.4, 0.8, 1.6, and 3.2 μM, concentrations of the 2×HCl salt of A20-I along with a 10 μM max standard (also A20-1) on three different Ephrin-EphB interactions (e.g., EphB1 in FIG. 74A, EphB2 in FIG. 74B and EphB4 in FIG. 74C). […]

[1] = water, read-out: aqueous solubility
[2] = Table B, EphrinB2-EphB1, read-out: Relative Association IC50 (300 sec)

SMILES: Oc1c(I)cc(CN2CCOCC2)c2cccnc12 [Compound 8, 4-((8-hydroxy-7-iodoquinolin-1-ium-5-yl)methyl)morpholin-4-ium chloride]
solubility (aqueous solubility; [1]): > 150 mg/mL | pIC50 (EphrinB2-EphB1; [2]): 5.94

SMILES: Oc1c(Br)cc(CN2CCOCC2)c2cccnc12 [Compound 6, 4-((7-bromo-8-hydroxyquinolin-1-ium-5-yl)methyl)morpholin-4-ium chloride]
solubility (aqueous solubility; water or pbs, aqueous buffer, read-out: solubility in water or PBS): > 50 mg/mL | solubility (aqueous solubility; [1]): > 1000 mg/mL

pIC50 (EphrinB2-EphB1; Table B, EphrinB2-EphB1, read-out: Absolute AUC/IC50): 6.80 | pIC50 (EphrinB2-EphB1; Table B, EphrinB2-EphB1, read-out: Absolute Dissociation IC50 (450 sec)): 6.48 | pIC50 (EphrinB2-EphB1; Table B, EphrinB2-EphB1, read-out: Relative AUC/IC50): 7.22 | pIC50 (EphrinB2-EphB1; [2]): 6.82 and 5.96 | pIC50 (EphrinB2-EphB1; Table B, EphrinB2-EphB1, read-out: Relative Dissociation IC50 (450 sec)): 7.15
SMILES: Oc1c(Br)cc(CN2CCN(c3ccc(Br)cc3)CC2)c2cccnc12 [Compound 30, 7-bromo-5-((4-(4-bromophenyl)piperazin-1-ium-1-yl)methyl)-8-hydroxyquinolin-1-ium chloride]

SMILES: Oc1c(I)cc(CN2CCOCC2)c2cccnc12 [Compound 7, 7-iodo-5-(morpholinomethyl)quinolin-8-ol]
solubility in water (aqueous solubility): extremely soluble in water

SMILES: Oc1c(Br)cc(CN2CCOCC2)c2cccnc12 [Compound 5, 7-bromo-5-(morpholinomethyl)quinolin-8-ol]
solubility in water (aqueous solubility): extremely soluble in water | pIC50 (EphrinB2-EphB1; A20 salt, read-out: absolute IC50): ~5.00 | IC (maximum) (EphrinB2-EphB1; read-out: concentration producing maximum inhibition): 10 µM
